Data: ChEMBL document CHEMBL5584224, “Recent advances in c-Met-based dual inhibitors in the treatment of cancers” (Eur J Med Chem, 2024)

Key:
[1] = biological target: Fibroblast growth factor receptor 3 (Homo sapiens, UniProt P22607); test: Inhibition of FGFR3 (unknown origin)
[2] = biological target: Fibroblast growth factor receptor 2 (Homo sapiens, UniProt P21802); test: Inhibition of FGFR2 (unknown origin)
[3] = biological target: Fibroblast growth factor receptor 1 (Homo sapiens, UniProt P11362); test: Inhibition of FGFR1 (unknown origin)
Sequence of Fibroblast growth factor receptor 1 (P11362 whole entry): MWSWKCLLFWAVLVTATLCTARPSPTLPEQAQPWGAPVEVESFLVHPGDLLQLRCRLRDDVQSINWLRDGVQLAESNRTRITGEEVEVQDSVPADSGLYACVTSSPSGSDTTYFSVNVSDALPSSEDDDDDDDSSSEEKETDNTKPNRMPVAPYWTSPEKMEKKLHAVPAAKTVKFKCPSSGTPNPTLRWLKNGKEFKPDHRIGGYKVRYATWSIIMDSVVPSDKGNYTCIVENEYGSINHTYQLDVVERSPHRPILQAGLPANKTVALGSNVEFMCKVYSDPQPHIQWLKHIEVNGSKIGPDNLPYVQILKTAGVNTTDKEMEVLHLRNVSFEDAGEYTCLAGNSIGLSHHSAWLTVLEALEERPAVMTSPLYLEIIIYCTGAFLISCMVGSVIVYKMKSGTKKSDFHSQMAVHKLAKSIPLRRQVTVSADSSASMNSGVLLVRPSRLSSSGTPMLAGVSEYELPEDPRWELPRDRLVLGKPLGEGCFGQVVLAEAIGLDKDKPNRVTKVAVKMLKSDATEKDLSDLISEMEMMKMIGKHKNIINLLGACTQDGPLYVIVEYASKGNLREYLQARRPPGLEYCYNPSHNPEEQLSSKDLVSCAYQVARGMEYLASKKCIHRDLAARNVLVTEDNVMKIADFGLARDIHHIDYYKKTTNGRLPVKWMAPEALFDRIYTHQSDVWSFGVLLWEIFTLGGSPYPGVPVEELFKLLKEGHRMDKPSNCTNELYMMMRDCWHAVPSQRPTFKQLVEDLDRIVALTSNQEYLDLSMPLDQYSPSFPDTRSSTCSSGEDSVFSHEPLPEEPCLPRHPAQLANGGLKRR

HepG2 [4] = test: Antitumor activity against human HepG2 cells xenografted in mouse model assessed as tumor growth inhibition at 16 mg/kg/day for 7 days relative to control; assay type: functional; parameters: scale not given: the % may be the effect or the level left; conditions: time 7 day
HepG2 [5] = test: Antiproliferative activity against human HepG2 cells assessed as reduction in cell viability incubated for 72 hrs by MTT assay; assay type: functional, cell-based; conditions: HepG2, 72 h
HepG2 [6] = test: Antitumor activity against human HepG2 cells xenografted in mouse model assessed as tumor growth inhibition at 48 mg/kg/day for 7 days relative to control; assay type: functional; parameters: scale not given: the % may be the effect or the level left; conditions: time 7 day

Sequence of Fibroblast growth factor receptor 2 (P21802 whole entry): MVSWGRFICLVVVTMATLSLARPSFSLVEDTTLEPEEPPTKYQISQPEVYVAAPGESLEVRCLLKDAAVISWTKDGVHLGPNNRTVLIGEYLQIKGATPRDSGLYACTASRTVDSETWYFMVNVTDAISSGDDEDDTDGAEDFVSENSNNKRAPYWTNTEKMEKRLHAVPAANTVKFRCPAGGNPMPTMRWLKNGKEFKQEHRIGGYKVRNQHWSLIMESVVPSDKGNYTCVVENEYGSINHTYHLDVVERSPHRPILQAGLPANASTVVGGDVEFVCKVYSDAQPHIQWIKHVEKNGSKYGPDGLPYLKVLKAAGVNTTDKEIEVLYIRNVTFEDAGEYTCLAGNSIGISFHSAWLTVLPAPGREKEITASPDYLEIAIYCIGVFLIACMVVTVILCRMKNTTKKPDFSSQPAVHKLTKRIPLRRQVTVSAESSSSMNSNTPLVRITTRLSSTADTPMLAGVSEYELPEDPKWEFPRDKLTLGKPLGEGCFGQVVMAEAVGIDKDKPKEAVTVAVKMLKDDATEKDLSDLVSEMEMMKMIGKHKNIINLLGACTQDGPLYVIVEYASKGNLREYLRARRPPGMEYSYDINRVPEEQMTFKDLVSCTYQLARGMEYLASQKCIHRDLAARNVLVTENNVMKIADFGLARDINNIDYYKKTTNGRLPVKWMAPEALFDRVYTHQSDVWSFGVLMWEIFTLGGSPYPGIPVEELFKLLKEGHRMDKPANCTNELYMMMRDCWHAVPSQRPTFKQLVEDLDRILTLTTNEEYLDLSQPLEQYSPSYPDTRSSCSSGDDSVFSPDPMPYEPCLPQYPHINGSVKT
Sequence of Fibroblast growth factor receptor 3 (P22607 whole entry): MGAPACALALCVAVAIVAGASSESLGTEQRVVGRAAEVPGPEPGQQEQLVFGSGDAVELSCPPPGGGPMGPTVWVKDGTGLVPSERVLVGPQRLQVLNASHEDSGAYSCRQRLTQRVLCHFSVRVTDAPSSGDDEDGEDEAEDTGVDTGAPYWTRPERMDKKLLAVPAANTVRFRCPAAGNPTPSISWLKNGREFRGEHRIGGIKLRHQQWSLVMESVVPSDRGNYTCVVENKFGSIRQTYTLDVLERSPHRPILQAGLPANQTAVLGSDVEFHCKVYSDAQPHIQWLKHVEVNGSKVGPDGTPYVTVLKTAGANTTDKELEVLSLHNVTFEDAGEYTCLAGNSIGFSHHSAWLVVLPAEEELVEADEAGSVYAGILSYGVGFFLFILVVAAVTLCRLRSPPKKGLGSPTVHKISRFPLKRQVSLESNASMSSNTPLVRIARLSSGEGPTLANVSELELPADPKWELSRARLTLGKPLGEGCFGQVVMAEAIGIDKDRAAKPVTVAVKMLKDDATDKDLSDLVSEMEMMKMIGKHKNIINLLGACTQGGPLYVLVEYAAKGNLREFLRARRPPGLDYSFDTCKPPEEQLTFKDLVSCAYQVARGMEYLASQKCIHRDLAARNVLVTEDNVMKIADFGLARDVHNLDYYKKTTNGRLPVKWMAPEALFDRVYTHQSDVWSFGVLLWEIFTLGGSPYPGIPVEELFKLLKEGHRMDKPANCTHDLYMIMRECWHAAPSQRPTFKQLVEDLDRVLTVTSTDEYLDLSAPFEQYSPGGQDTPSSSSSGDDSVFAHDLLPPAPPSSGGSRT

Row | IC50 [1] | IC50 [2] | IC50 [3] | IC50 (HepG2 [5]) | Structure (SMILES) | Activity (HepG2 [4]) | Activity (HepG2 [6])
1 | 15 nM | 17 nM | 18 nM | – | O=C1Nc2ccc(CN3C(=O)CSC3=O)cc2/C1=C/c1cc(CN2CCOCC2)c[nH]1 | – | –
2 | – | – | – | 1460 nM | Cc1ccccc1NS(=O)(=O)c1ccc2c(c1)/C(=C/c1nc3ccccc3[nH]1)C(=O)N2.Cl | 65.2% | 65.2%
